Experiment [1] has as its target DAGLα (hDAGLα-FLAG) (Homo sapiens (Human), UniProt Q9Y4D2). The experiment is described as follows: competitive ABPP, membrane proteome of transfected HEK293T cells. To be noted: for IC50: read-out: DAGLα IC50; for inhibition at 0.4 µM: read-out: DAGLα % inh. 0.4 μM; for inhibition at 0.0032 µM: 3.2 nM, read-out: DAGLα % inh. 3.2 nM. It counts as biochemical. On the procedure:
(§1) Compounds 19 and 20 were tested for in vitro inhibition of DAGLα and DAGLβ as measured by competitive activity-based protein profiling (ABPP) of […] using a HT-01 probe (targets DAGLα and DAGLβ) and a FP-Rh probe (targets serine hydrolases).
(§2) Briefly, membrane proteome (1 mg/ml, 20 μL) was prepared from HEK293T cells (transiently transfected with hDAGLα-FLAG or hDAGLα-S472A-FLAG, hDAGLβ-FLAG or hDAGLβ-S443A-FLAG) as described in Example 16. The proteome was incubated at room temperature with vehicle (DMSO) or compound in 0.5 μL DMSO for 30 min. The membrane proteome sample was subsequently treated for 30 min with HT-01 probe (1 μM) or FP-Rh probe (1 μM). The reactions were quenched with 10 μL 3× Laemmli sample buffer (final concentrations: 60 mM Tris-Cl pH 6.8, 2% (w/v) SDS, 10% (v/v) glycerol, 5% (v/v) (3-mercaptoethanol, 0.01% (v/v) bromophenol blue). The samples were directly loaded and resolved on SDS page gel (10% acrylamide). The gels were scanned using a ChemiDoc MP system (Cy3 settings, 605/50 filter).
(§3) The resolved proteins were transferred from the gels to a polyvinyldifluoride membrane for Western Blotting using a Trans-Blot® Turbo (BioRad). FLAG-tagged enzymes were stained using rabbit anti-FLAG as primary antibody, and goat-anti-rabbit HRP as secondary antibody. The blot was developed in the dark using a 10 mL luminal solution, 100 μL ECL enhancer and 3 μL H2O2. Chemiluminescence was visualized using a ChemiDoc XRS (BioRad).
(§4) The percentage of DAGL activity remaining in the assayed samples was determined by measuring the integrated optical intensity of the fluorescent protein bands of the Western Blot using image lab 4.1. The relative intensity was compared to the vehicle (DMSO) treated proteins, which were set to 100%. IC50 values were determined by plotting a log(inhibitor) vs. normalized response (Variable slope) dose-response curve generated using Prism software (GraphPad).

Experiment [2] addresses DAGLβ (hDAGLβ-FLAG) (Homo sapiens (Human), UniProt Q8NCG7). Described as above. To be noted: for IC50: read-out: DAGLβ IC50; for inhibition at 0.4 µM: read-out: DAGLβ % inh. 0.4 μM; for inhibition at 0.0032 µM: read-out: DAGLβ % inh. 3.2 nM. It is filed as biochemical. On the procedure: as §1, §2, §3, §4

A value given as a limit tells only on which side of the number the result lay.

Chain of DAGLβ (hDAGLβ-FLAG) (Q8NCG7 whole entry): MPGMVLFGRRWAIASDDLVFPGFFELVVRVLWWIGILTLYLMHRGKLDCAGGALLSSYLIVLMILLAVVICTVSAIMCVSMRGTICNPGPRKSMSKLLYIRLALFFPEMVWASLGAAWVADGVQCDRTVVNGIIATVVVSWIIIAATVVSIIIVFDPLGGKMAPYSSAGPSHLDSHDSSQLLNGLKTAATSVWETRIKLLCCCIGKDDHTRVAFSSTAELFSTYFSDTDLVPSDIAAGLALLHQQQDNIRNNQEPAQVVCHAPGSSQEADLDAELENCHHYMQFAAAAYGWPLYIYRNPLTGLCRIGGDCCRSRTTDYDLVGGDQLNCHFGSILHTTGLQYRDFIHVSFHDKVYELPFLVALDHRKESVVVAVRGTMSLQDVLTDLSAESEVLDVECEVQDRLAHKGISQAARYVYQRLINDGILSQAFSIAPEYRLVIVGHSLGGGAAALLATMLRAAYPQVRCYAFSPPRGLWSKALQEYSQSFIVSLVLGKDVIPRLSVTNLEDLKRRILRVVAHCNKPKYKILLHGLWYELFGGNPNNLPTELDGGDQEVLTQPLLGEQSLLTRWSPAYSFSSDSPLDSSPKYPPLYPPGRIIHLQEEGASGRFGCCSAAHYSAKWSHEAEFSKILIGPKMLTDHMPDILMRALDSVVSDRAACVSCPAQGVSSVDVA
Chain of DAGLα (hDAGLα-FLAG) (Q9Y4D2 whole entry): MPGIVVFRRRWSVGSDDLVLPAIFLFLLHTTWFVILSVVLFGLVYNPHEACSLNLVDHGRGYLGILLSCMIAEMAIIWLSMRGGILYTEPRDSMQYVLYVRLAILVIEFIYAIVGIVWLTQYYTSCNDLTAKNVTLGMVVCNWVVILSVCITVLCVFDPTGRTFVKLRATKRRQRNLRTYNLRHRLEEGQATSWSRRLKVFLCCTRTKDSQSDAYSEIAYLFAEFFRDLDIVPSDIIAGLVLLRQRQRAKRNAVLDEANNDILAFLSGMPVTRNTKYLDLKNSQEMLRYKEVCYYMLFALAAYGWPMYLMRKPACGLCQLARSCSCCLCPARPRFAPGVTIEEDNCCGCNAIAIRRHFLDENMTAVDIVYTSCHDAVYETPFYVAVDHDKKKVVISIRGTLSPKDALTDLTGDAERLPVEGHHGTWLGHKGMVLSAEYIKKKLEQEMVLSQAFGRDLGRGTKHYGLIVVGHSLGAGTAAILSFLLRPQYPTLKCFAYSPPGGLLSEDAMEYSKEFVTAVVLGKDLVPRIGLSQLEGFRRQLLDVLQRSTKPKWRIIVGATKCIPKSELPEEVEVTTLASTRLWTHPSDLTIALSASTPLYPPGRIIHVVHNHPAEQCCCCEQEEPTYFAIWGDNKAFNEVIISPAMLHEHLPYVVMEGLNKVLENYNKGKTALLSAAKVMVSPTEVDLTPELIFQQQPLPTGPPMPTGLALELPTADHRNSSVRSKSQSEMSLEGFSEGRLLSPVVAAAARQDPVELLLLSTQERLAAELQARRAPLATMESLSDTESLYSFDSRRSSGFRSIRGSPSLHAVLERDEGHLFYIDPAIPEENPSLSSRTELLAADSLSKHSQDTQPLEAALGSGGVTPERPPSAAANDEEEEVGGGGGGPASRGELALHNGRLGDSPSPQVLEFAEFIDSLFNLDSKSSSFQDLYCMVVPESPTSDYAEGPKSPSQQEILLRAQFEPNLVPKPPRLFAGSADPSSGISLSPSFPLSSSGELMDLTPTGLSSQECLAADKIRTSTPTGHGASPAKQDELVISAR

Take `CNC(=O)c1cc(OC)c(-c2ccc(-c3cn(C(=O)N4CCCCC4Cc4ccccc4)nn3)cc2)c(OC)c1` (centres unmarked) [Compound 79, 4′-(1-(2-benzylpiperidine-1-carbonyl)-1H-1,2,3-triazol-4-yl)-2,6-dimethoxy-N-methyl-[1,1′-biphenyl]-4-carboxamide]: the figures for the IC50 in experiment [1] and in experiment [2] were 400 to 2000 nM and more than 10000 nM, respectively.

For the molecule `COc1cc(C(=O)N(C)C)cc(OC)c1-c1ccc(-c2cn(C(=O)N3CCCCC3Cc3ccccc3)nn2)cc1` (centres unmarked) [Compound 80, 4′-(1-(2-benzylpiperidine-1-carbonyl)-1H-1,2,3-triazol-4-yl)-2,6-dimethoxy-N,N-dimethyl-[1,1′-biphenyl]-4-carboxamide], the IC50 in experiment [1] was 400 to 2000 nM; in experiment [2] it was more than 10000 nM.

For the molecule `COc1cc(C(=O)N2CCCC2)cc(OC)c1-c1ccc(-c2cn(C(=O)N3CCCCC3Cc3ccccc3)nn2)cc1` (centres unmarked) [Compound 81, (2-benzylpiperidin-1-yl)(4-(2′,6′-dimethoxy-4′-(pyrrolidine-1-carbonyl)-[1,1′-biphenyl]-4-yl)-1H-1,2,3-triazol-1-yl)methanone], the IC50 in experiment [1] is 400 to 2000 nM; in experiment [2] it was more than 10000 nM.

Consider `COc1ncnc(OC)c1-c1ccc(-c2cn(C(=O)N3CCCCC3Cc3ccccc3)nn2)cc1` (centres unmarked) [Compound 82, (2-benzylpiperidin-1-yl)(4-(4-(4,6-dimethoxypyrimidin-5-yl)phenyl)-1H-1,2,3-triazol-1-yl)methanone], for which the IC50 in experiment [1] and in experiment [2] was not above 400 nM each time.

Consider `COc1cnnc(OC)c1-c1ccc(-c2cn(C(=O)N3CCCCC3Cc3ccccc3)nn2)cc1` (centres unmarked) [Compound 83, (2-benzylpiperidin-1-yl)(4-(4-(3,5-dimethoxypyridazin-4-yl)phenyl)-1H-1,2,3-triazol-1-yl)methanone], for which the IC50 was not above 400 nM in experiment [1] and 2000 to 10000 nM in experiment [2].

Regarding `COc1cc(OC)c(-c2cn(C(=O)N3CCCCC3Cc3ccccc3)nn2)c(OC)c1` (centres unmarked) [Compound 84, (2-benzylpiperidin-1-yl)(4-(2,4,6-trimethoxyphenyl)-1H-1,2,3-triazol-1-yl)methanone], the IC50 is more than 10000 nM in experiment [1] and 2000 to 10000 nM in experiment [2].

As for `COc1cc(OC)c(-c2cnn(C(=O)N3CCCCC3Cc3ccccc3)n2)c(OC)c1` (centres unmarked) [Compound 85, (2-benzylpiperidin-1-yl)(4-(2,4,6-trimethoxyphenyl)-1H-1,2,3-triazol-2-yl)methanone], the IC50 in experiment [1] was more than 10000 nM; in experiment [2], 2000 to 10000 nM.

`COc1ccc(-c2cn(C(=O)N3CCCCC3Cc3ccccc3)nn2)cc1` (centres unmarked) [Compound 87, (2-benzylpiperidin-1-yl)(4-(4-methoxyphenyl)-1H-1,2,3-triazol-1-yl)methanone]: the IC50 in experiment [1] and in experiment [2] was not above 400 nM each time.

With `N#Cc1ccc(-c2cn(C(=O)N3CCCCC3Cc3ccccc3)nn2)cc1` (centres unmarked) [Compound 88, 4-(1-(2-benzylpiperidine-1-carbonyl)-1H-1,2,3-triazol-4-yl)benzonitrile], the IC50 in experiment [1] and in experiment [2] was not above 400 nM each time.

Turning to `O=C(N1CCCCC1Cc1ccccc1)n1cc(-c2ccc([N+](=O)[O-])cc2)nn1` (centres unmarked) [Compound 89, (2-benzylpiperidin-1-yl)(4-(4-nitrophenyl)-1H-1,2,3-triazol-1-yl)methanone], the 50% inhibitory concentration (IC50) in experiment [1] and in experiment [2] was not above 400 nM each time.

On to `O=C(N1CCCCC1Cc1ccccc1)n1cc(-c2ccc(Br)nc2)nn1` (centres unmarked) [Compound 90, (2-benzylpiperidin-1-yl)(4-(6-bromopyridin-3-yl)-1H-1,2,3-triazol-1-yl)methanone], for which the IC50 in experiment [1] and in experiment [2] was not above 400 nM each time.

As for `CS(=O)(=O)OCc1ccc(-c2cn(C(=O)N3CCCCC3Cc3ccccc3)nn2)cc1` (centres unmarked) [Compound 91, 4-(1-(2-benzylpiperidine-1-carbonyl)-1H-1,2,3-triazol-4-yl)benzyl methanesulfonate], the figures for the IC50 in experiment [1] and in experiment [2] were not above 400 nM and 2000 to 10000 nM, respectively.

For `CN(C)Cc1ccc(-c2cn(C(=O)N3CCCCC3Cc3ccccc3)nn2)cc1` (centres unmarked) [Compound 92, (2-benzylpiperidin-1-yl)(4-(4-((dimethylamino)methyl)phenyl)-1H-1,2,3-triazol-1-yl)methanone], the IC50 in experiment [1] and in experiment [2] was 2000 to 10000 nM throughout.

For the molecule `O=C(N1CCCCC1Cc1ccccc1)n1cc(-c2ccc(CN3CCCC3)cc2)nn1` (centres unmarked) [Compound 93, (2-benzylpiperidin-1-yl)(4-(4-(pyrrolidin-1-ylmethyl)phenyl)-1H-1,2,3-triazol-1-yl)methanone], the IC50 in experiment [1] was 2000 to 10000 nM; in experiment [2], more than 10000 nM.

Take `O=C(N1CCCCC1Cc1ccccc1)n1cc(-c2ccc(CN3CCOCC3)cc2)nn1` (centres unmarked) [Compound 94, (2-benzylpiperidin-1-yl)(4-(4-(morpholinomethyl)phenyl)-1H-1,2,3-triazol-1-yl)methanone]: the IC50 is not above 400 nM in experiment [1] and 400 to 2000 nM in experiment [2].

On to `COC(=O)N1CCN(C(=O)n2cc(-c3ccc(OC(F)(F)F)cc3)nn2)C(Cc2ccccc2)C1` (centres unmarked) [Compound 95, methyl 3-benzyl-4-(4-(4-(trifluoromethoxy)phenyl)-1H-1,2,3-triazole-1-carbonyl)piperazine-1-carboxylate], for which the values for the inhibition at 0.4 µM in experiment [1] and in experiment [2] were not below 75% and 25 to 50%, respectively.

On to `CC(C)OC(=O)N1CCN(C(=O)n2cc(-c3ccc(OC(F)(F)F)cc3)nn2)C(Cc2ccccc2)C1` (centres unmarked) [Compound 96, isopropyl 3-benzyl-4-(4-(4-(trifluoromethoxy)phenyl)-1H-1,2,3-triazole-1-carbonyl)piperazine-1-carboxylate], for which the figures for the inhibition at 0.4 µM in experiment [1] and in experiment [2] were not below 75% and 50 to 75%, respectively.

With `CC(C)OC(=O)N1CCN(C(=O)n2ncc(-c3ccc(OC(F)(F)F)cc3)n2)C(Cc2ccccc2)C1` (centres unmarked) [Compound 97, isopropyl 3-benzyl-4-(4-(4-(trifluoromethoxy)phenyl)-2H-1,2,3-triazole-2-carbonyl)piperazine-1-carboxylate], the inhibition at 0.4 µM in experiment [1] was in the range of 25 to 50%; in experiment [2], 0 to 25%.

Consider `COC(=O)N1CCN(C(=O)n2ncc(-c3ccc(OC(F)(F)F)cc3)n2)C(Cc2ccccc2)C1` (centres unmarked) [Compound 98, methyl 3-benzyl-4-(4-(4-(trifluoromethoxy)phenyl)-2H-1,2,3-triazole-2-carbonyl)piperazine-1-carboxylate], for which the inhibition at 0.4 µM in experiment [1] and in experiment [2] was 0 to 25% in each case.

`CC(C)(C)OC(=O)N1CCN(C(=O)n2ncc(-c3ccc(OC(F)(F)F)cc3)n2)C(Cc2ccccc2)C1` (centres unmarked) [Compound 99, tert-butyl 3-benzyl-4-(4-(4-(trifluoromethoxy)phenyl)-2H-1,2,3-triazole-2-carbonyl)piperazine-1-carboxylate]: the inhibition at 0.4 µM in experiment [1] and in experiment [2] was 0 to 25% each time.

In the case of `CC(C)(C)OC(=O)N1CCN(C(=O)n2cc(-c3ccc(OC(F)(F)F)cc3)nn2)[C@H](Cc2ccccc2)C1` [Compound 100, tert-butyl (R)-3-benzyl-4-(4-(4-(trifluoromethoxy)phenyl)-1H-1,2,3-triazole-1-carbonyl)piperazine-1-carboxylate], the inhibition at 0.4 µM in experiment [1] and in experiment [2] was not below 75% each time.

As to `CC(C)(C)OC(=O)N1CCN(C(=O)n2cc(-c3ccc(OC(F)(F)F)cc3)nn2)[C@@H](Cc2ccccc2)C1` [Compound 102, tert-butyl (S)-3-benzyl-4-(4-(4-(trifluoromethoxy)phenyl)-1H-1,2,3-triazole-1-carbonyl)piperazine-1-carboxylate], the inhibition at 0.4 µM in experiment [1] and in experiment [2] was not below 75% throughout.

Regarding `O=C(N1CCCC[C@@H]1Cc1ccccc1)n1ncc(-c2ccc(OC(F)(F)F)cc2)n1` [Compound 104, (R)-(2-benzylpiperidin-1-yl)(4-(4-(trifluoromethoxy)phenyl)-2H-1,2,3-triazol-2-yl)methanone], the inhibition at 0.0032 µM in experiment [1] and in experiment [2] was 0 to 25% each time.

With `O=C(N1CCCC[C@H]1Cc1ccccc1)n1ncc(-c2ccc(OC(F)(F)F)cc2)n1` [Compound 105, (S)-(2-benzylpiperidin-1-yl)(4-(4-(trifluoromethoxy)phenyl)-2H-1,2,3-triazol-2-yl)methanone], the inhibition at 0.0032 µM in experiment [1] and in experiment [2] was 0 to 25% in each case.

On to `O=C(N1CCC=C[C@@H]1COCc1ccccc1)n1cc(-c2ccc(OC(F)(F)F)cc2)nn1` [Compound 106, (R)-(6-((benzyloxy)methyl)-3,6-dihydropyridin-1(2H)-yl)(4-(4-(trifluoromethoxy)phenyl)-1H-1,2,3-triazol-1-yl)methanone], for which the inhibition at 0.0032 µM in experiment [1] and in experiment [2] was 0 to 25% each time.

One may read the IC50 as the concentration needed to halve the response being measured.

The record behind these values is US10583137B2, “Triazole DAGLα inhibitors” (THE SCRIPPS RESEARCH INSTITUTE, priority 2015, dated 2020).
